Reference: patent US4642355A, “Proline derivatives” (Otsuka Pharmaceutical Factory, Inc., priority 1984, dated 1987)
Where a name gives a salt, the structure may show the parent alone.

Assays:
[1] = system: angiotensin-converting enzyme (ACE); experiment: ACE inhibitory effect in normotensive rats (inhibition of pressor response to angiotensin I); assay type: in vivo; settings: 1 mg/kg directly to the stomach, male Wistar rats, urethane anesthesia, AI/AII ratio
Description: ACE Inhibitory effect in normotensive rats
Male Wistar rats weighing 200 to 400 g were anesthetized by the intraperitoneal injection of urethane (1.25 g/kg) and held in the supine position. The degree of inhibition of pressor response to angiotensin (A) I was determined using these rats. The blood pressure was measured with a femoral artery cannula connected to a transducer (product of Nihon Kohden Kabushiki Kaisha, Japan, Model MPU-0.5-290-0-III) and recorded in terms of a mean blood pressure value through a carrier amplifier (product of Nihon Kohden Kabushiki Kaisha, Japan, Model RP-5) on a multipurpose polygraph (product of Nihon Kohden Kabushiki Kaisha, Japan, Model RM-85). The rats were set in an experimental device and left therein for 1 hour to stabilize the hemodynamics. Then experiments were commenced. Since the magnitude of the pressor response to AI varies with time, the ratio of the responses to AI and AII (AI/AII ratio) was used to determine the magnitude of the pressor response to AI which ratio remained more constant. Through the cannulated femoral vein, AI (300 ng/kg) was administered first and AII (300 ng/kg) was given in 5 minutes to measure an AI/AII ratio. At 30 minutes after the first administration of AI, AI (300 ng/kg) was similarly administered and AII (300 ng/kg) was given in 5 minutes, followed by measuring an AI/AII ratio. This procedure was repeated until a constant value of AI/AII ratio was obtained. (The mean value of AI/AII ratios each resulting from the repeated procedure is represented as "C" in an equation to be shown later). At 10 minutes after the final administration of AII, an aqueous solution containing 1 mg/kg of each test compound was given directly to the stomach through a vinyl tube. At 10 minutes after administration of the test compound, AI (300 ng/kg) was given and at 5 minutes later, AII (300 ng/kg) was administered, followed by measurement of the AI/AII ratio (which was represented as "E" in the following equation). An ACE percent inhibition was calculated according to the equation indicated below. [formula]
Subsequently at each time of 60, 120 and 240 minutes after the administration of the test compound, AI (300 ng/kg) was given in the same manner as above and AII (300 ng/kg) was administered in 5 minutes, whereupon an ACE percent inhibition was calculated in the same way.
The results are shown below in Table 26 in which the test compounds listed are those prepared in the Examples indicated therein.

[2] = biological target: T1, angiotensin-converting enzyme (ACE) (Oryctolagus cuniculus, UniProt P12822); experiment: Inhibitory activity against angiotensin-converting enzyme (ACE); assay type: biochemical, rabbit; settings: for IC50: enzyme from rabbit lung acetone powder, substrate hippurylhistidyl-leucine, 37° C.
T1 construct: enzyme solution prepared from rabbit lung acetone powder; tissue Sigma Chemical Co., Ltd., U.S.A; host or cells: rabbit lung (acetone powder)
T1 sequence (P12822 34-1310): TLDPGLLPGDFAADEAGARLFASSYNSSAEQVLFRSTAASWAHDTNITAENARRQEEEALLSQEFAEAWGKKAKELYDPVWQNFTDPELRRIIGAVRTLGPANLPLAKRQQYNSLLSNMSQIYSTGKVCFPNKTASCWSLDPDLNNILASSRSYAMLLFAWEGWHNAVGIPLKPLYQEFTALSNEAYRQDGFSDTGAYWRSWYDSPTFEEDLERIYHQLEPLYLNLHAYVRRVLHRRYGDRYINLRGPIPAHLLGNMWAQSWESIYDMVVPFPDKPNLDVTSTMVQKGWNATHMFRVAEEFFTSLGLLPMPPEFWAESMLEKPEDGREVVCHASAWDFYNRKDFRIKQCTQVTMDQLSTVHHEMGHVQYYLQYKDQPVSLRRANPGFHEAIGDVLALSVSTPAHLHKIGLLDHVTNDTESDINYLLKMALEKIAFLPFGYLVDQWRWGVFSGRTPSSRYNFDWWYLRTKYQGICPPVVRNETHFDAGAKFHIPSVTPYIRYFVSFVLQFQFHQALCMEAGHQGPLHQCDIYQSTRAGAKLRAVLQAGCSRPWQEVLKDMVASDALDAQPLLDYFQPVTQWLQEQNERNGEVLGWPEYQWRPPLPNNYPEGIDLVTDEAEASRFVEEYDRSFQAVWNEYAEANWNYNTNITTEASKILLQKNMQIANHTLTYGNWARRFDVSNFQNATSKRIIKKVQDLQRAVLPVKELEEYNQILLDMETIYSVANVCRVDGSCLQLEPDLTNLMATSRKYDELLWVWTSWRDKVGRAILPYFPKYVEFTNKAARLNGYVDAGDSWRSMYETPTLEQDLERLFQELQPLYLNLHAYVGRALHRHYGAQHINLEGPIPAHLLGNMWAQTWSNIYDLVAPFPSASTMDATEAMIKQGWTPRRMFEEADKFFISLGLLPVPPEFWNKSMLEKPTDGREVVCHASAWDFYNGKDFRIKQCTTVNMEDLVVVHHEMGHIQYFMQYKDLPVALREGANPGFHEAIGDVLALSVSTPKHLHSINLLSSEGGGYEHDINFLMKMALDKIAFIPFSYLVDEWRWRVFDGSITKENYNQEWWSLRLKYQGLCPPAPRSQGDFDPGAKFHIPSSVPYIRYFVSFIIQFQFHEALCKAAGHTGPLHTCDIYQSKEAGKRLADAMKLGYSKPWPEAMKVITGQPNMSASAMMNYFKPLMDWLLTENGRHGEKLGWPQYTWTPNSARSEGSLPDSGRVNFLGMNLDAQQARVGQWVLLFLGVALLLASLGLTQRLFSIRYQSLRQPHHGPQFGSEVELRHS
Description: Inhibitory activity against angiotensin-converting enzyme (ACE)
A 100 μl quantity of an enzyme solution prepared from rabbit lung acetone powder (product of Sigma Chemical Co., Ltd., U.S.A.) was mixed with 100 μl of a sample solution. The mixture was gently shaken at 37° C. for 10 minutes. To the reaction mixture was added 100 μl of a solution containing 6.99 mM of hippurylhistidyl-leucine (product of Peptide Institute, Inc., Japan) as a substrate. The mixture was reacted at 37° C. for 45 minutes while being shaken. The reaction was terminated by addition of 200 μl of a 1N sulfuric acid aqueous solution to the reaction mixture. Sodium chloride (saturation amount) and diethyl ether (2 ml) were added to the reaction mixture to extract the hippuric acid formed by the reaction. The resulting mixture was vigorously shaken for 15 minutes and centrifuged at 2000 rpm for 5 minutes. A 1.5 ml quantity of the ether layer was separated. After the solvent was distilled off, the residue was redissolved in 1.5 ml of distilled water and the absorbance at 228 nm was measured. A control was prepared by repeating the same procedure as above except that 100 μl of distilled water was used in place of the sample solution.
The inhibitory activity was calculated by deducting the absorbance value of the residue formed by addition of the sample solution from that of the control, and the resulting value was divided by the absorbance value of the control and multiplied by 100, thereby giving a percent inhibition. The inhibitory activity was expressed as IC50, i.e., the concentration of the sample solution in the reaction mixture in which concentration 50% inhibition is achieved.
The test compounds used in the experiment are shown below.

[3] = 15 min. after administration, 1 mg/kg
[4] = 60 min. after administration, 1 mg/kg
[5] = 120 min. after administration, 1 mg/kg
[6] = 240 min. after administration, 1 mg/kg

Compound | ACE Percent Inhibition, mean ± SD ([1]; 15 min. after administration) [%] | ACE Percent Inhibition, mean ± SD ([1]; 60 min. after administration) [%] | ACE Percent Inhibition, mean ± SD ([1]; 120 min. after administration) [%] | ACE Percent Inhibition, mean ± SD ([1]; 240 min. after administration) [%] | other results
CCCCCCCSC[C@H](NC(C)C(=O)N1CCC[C@H]1C(=O)O)C(=O)OCC (stereo partly drawn) [Example 18, N-[(R)-1-ethoxycarbonyl-2-heptylthioethyl]-alanyl-(S)-proline (β-isomer) and maleate] | 77 ± 8 | 75 ± 23 | 84 ± 10 | 63 ± 6 | 
CCCCCSC[C@H](NC(C)C(=O)N1CCC[C@H]1C(=O)O)C(=O)O (stereo partly drawn) [Test Compound 3, N--[(R)--1-carboxy-2-pentylthioethyl]-alanyl-(S)--proline (β-isomer)] |  |  |  |  | ACE inhibitory activity higher than Test Compound No. 4 (fold) ([2]; compared with Test Compound No. 4): about 122 times; IC50 [2]: 0.104 nM
CCCCCCC(SC[C@H](NC(C)C(=O)N1CCC[C@H]1C(=O)O)C(=O)OCC)C(=O)OCC (stereo partly drawn) [Ex. No. 71*^ 3] |  |  |  |  | ACE Percent Inhibition, mean ± SD [1, 3]: 39 ± 34%; ACE Percent Inhibition, mean ± SD [1, 4]: 65 ± 14%; ACE Percent Inhibition, mean ± SD [1, 5]: 60 ± 2%; ACE Percent Inhibition, mean ± SD [1, 6]: 67 ± 3%
CCCCCCCSC[C@H](NC(C)C(=O)N1CCC[C@H]1C(=O)OCc1ccccc1)C(=O)OCC (stereo partly drawn) [Example 42] | 27 ± 1 | 17 ± 18 | 57 ± 7 | 66 ± 7 | 
CSCC[C@H](NC(C)C(=O)N1CCC[C@H]1C(=O)O)C(=O)O (stereo partly drawn) [Test Compound 4, N--[(S)--1-carboxy-3-methylthiopropyl]-(R,S)--alanyl-(S)--proline, reference compound] |  |  |  |  | IC50 [2]: 12.7 nM
CCOC(=O)[C@H](CSCC1CCCCC1)NC(C)C(=O)N1CCC[C@H]1C(=O)O (stereo partly drawn) [Example 21] | 22 ± 25 | 38 ± 29 | 58 ± 15 | 56 ± 14 | 
CCCCCCCCSC[C@H](NC(C)C(=O)N1CCC[C@H]1C(=O)O)C(=O)OCC (stereo partly drawn) [Example 81, N-[(R)-1-ethoxycarbonyl-2-octylthio-ethyl]-alanyl-(S)-proline (β-isomer).L-arginine salt] | 14 ± 17 | 43 ± 18 | 47 ± 11 | 55 ± 6 | 
CCCCCCCSC[C@H](NC(C)C(=O)N1CCC[C@H]1C(=O)OC)C(=O)OCC (stereo partly drawn) [Example 39] | 39 ± 59 | 79 ± 30 | 76 ± 5 | 88 ± 3 | 
CCCCCC(SC[C@H](NC(C)C(=O)N1CCC[C@H]1C(=O)O)C(=O)OCC)C(=O)OCC (stereo partly drawn) [Ex. No. 67*^1] |  |  |  |  | ACE Percent Inhibition, mean ± SD [1, 3]: 23 ± 35%; ACE Percent Inhibition, mean ± SD ([1]; 15 min. after administration, listed as Ex. No. 67*^2, 1 mg/kg): 46 ± 29%; ACE Percent Inhibition, mean ± SD [1, 4]: 55 ± 11%; ACE Percent Inhibition, mean ± SD ([1]; 60 min. after administration, listed as Ex. No. 67*^2, 1 mg/kg): 76 ± 10%; ACE Percent Inhibition, mean ± SD [1, 5]: 59 ± 4%; ACE Percent Inhibition, mean ± SD ([1]; 120 min. after administration, listed as Ex. No. 67*^2, 1 mg/kg): 61 ± 14%; ACE Percent Inhibition, mean ± SD [1, 6]: 63 ± 9%; ACE Percent Inhibition, mean ± SD ([1]; 240 min. after administration, listed as Ex. No. 67*^2, 1 mg/kg): 65 ± 7%
CCCCCCCSC[C@H](NC(C)C(=O)N1CCC[C@H]1C(=O)OCC)C(=O)OCC (stereo partly drawn) [Example 40] | 37 ± 19 | 55 ± 18 | 57 ± 13 | 70 ± 9 | 
CCOC(=O)[C@H](CSCC=C(C)C)NC(C)C(=O)N1CCC[C@H]1C(=O)O (stereo partly drawn) [Example 32] | 15 ± 9 | 31 ± 7 | 33 ± 9 | 29 ± 8 | 
CCCCCCSC[C@H](NC(C)C(=O)N1CCC[C@H]1C(=O)O)C(=O)OCC (stereo partly drawn) [Example 5, N-[(R)-1-ethoxycarbonyl-2-hexylthioethyl]-alanyl-(S)-proline(β-isomer) and L-arginine salt thereof] | 28 ± 14 | 54 ± 3 | 54 ± 17 | 55 ± 7 | 
CCCCCCC(SC[C@H](NC(C)C(=O)N1CCC[C@H]1C(=O)O)C(=O)OCC)C(=O)OCC (stereo partly drawn) [Ex. No. 71*^4] |  |  |  |  | ACE Percent Inhibition, mean ± SD [1, 3]: 47 ± 24%; ACE Percent Inhibition, mean ± SD [1, 4]: 69 ± 6%; ACE Percent Inhibition, mean ± SD [1, 5]: 70 ± 10%; ACE Percent Inhibition, mean ± SD [1, 6]: 60 ± 10%
